Laboratory results reported in patent US12139499B2, “Heteroaryl compounds for treating Huntington's disease” (PTC THERAPEUTICS, INC., priority 2018, dated 2024).

System: Endogenous Huntingtin Protein
Experiment: Endogenous Huntingtin Protein Assay (ELISA-based MSD electrochemiluminescence)
Assay type: cell-based
Conditions: Table 1
Summary of the method: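 Huntingtin was captured overnight at 4 °C on plates coated with 1 μg/mL MW1 (polyQ-expanded) or MAB2166 antibody and BSA-blocked. Detection used a rabbit monoclonal and then a SULFO-TAG goat anti-rabbit antibody (0.25 μg/mL, 1 h each, room temperature). Signal was read by electrochemiluminescence.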

Structure (SMILES) | IC50 [nM]
CC[C@]12CC[C@](CC)(CC(N(C)c3nc4cnc(-c5cc(C#N)c6nc(C)cn6c5)nc4s3)C1)N2 (stereo partly drawn) [Compound 303, 6-(2-{[(1R,3r,5S)-1,5-diethyl-8-azabicyclo[3.2.1]octan-3-yl](methyl)amino}[1,3]thiazolo[5,4-d]pyrimidin-5-yl)-2-methylimidazo[1,2-a]pyridine-8-carbonitrile] | ≤ 100
CC[C@]12CC[C@](CC)(CC(N(C)c3nc4cnc(-c5cc(F)c6nc(C)cn6c5)nc4s3)C1)N2 (stereo partly drawn) [Compound 304, N-[(1R,3r,5S)-1,5-diethyl-8-azabicyclo[3.2.1]octan-3-yl]-5-(8-fluoro-2-methylimidazo[1,2-a]pyridin-6-yl)-N-methyl[1,3]thiazolo[5,4-d]pyrimidin-2-amine] | 100 to 500
Cc1csc2nc(-c3cc4sc(N(C)C5CC(C)(C)NC(C)(C)C5)nc4cn3)cn12 [Compound 305] | 500 to 1000
Cc1cn2nc(-c3cc(F)c4nc(OC5CCNCC5)sc4c3)cc(C)c2n1 [Compound 306, 6-{4-fluoro-2-[(piperidin-4-yl)oxy]-1,3-benzothiazol-6-yl}-2,8-dimethylimidazo[1,2-b]pyridazine] | ≤ 100
Cn1cc2cc(-c3cc(F)c4nc(OC5CCNCC5)sc4c3)cc(F)c2n1 [Compound 307, 4-fluoro-6-(7-fluoro-2-methyl-2H-indazol-5-yl)-2-[(piperidin-4-yl)oxy]-1,3-benzothiazole] | ≤ 100
Cc1nn2cc(-c3cc4sc(N(C)C5CC(C)(C)NC(C)(C)C5)nc4cn3)nc2s1 [Compound 308, N-methyl-6-(2-methylimidazo[2,1-b][1,3,4]thiadiazol-6-yl)-N-(2,2,6,6-tetramethylpiperidin-4-yl)[1,3]thiazolo[4,5-c]pyridin-2-amine] | 1000 to 3000
Cc1cn2cc(-c3cc4sc(N(C)C5CC6(C)CCC(C)(C5)N6)nc4cn3)nc2c(C)n1 [Compound 322, N-[(1R,3s,5S)-1,5-dimethyl-8-azabicyclo[3.2.1]octan-3-yl]-6-(6,8-dimethylimidazo[1,2-a]pyrazin-2-yl)-N-methyl[1,3]thiazolo[4,5-c]pyridin-2-amine] | ≤ 100
Cc1cn2cc(-c3ncc4nc(N(C)[C@H]5C[C@]6(C)CC[C@](C)(C5)N6)sc4n3)cc2c(C)n1 [Compound 323, N-[(1R,3s,5S)-1,5-dimethyl-8-azabicyclo[3.2.1]octan-3-yl]-5-(1,3-dimethylpyrrolo[1,2-a]pyrazin-7-yl)-N-methyl[1,3]thiazolo[5,4-d]pyrimidin-2-amine] | ≤ 100
Cc1cn2cc(-c3ncc4nc(N(C)[C@@H]5CC(C)(C)NC(C)(C)[C@@H]5F)sc4n3)cc(C#N)c2n1 [Compound 324, 6-(2-{[(3R,4R)-3-fluoro-2,2,6,6-tetramethylpiperidin-4-yl](methyl)amino}[1,3]thiazolo[5,4-d]pyrimidin-5-yl)-2-methylimidazo[1,2-a]pyridine-8-carbonitrile] | ≤ 100
Cc1cn2cc(-c3cc4sc(N(C)[C@@H]5CC(C)(C)NC(C)(C)[C@@H]5F)nc4cn3)cc(C#N)c2n1 [Compound 325, 6-(2-{[(3R,4R)-3-fluoro-2,2,6,6-tetramethylpiperidin-4-yl](methyl)amino}[1,3]thiazolo[4,5-c]pyridin-6-yl)-2-methylimidazo[1,2-a]pyridine-8-carbonitrile] | ≤ 100
Cc1cn2cc(-c3cc4sc(N(C)[C@H]5C[C@]6(C)CC[C@@](C)(N6)[C@H]5F)nc4cn3)cc(F)c2n1 [Compound 326] | ≤ 100
CN(c1nc2nnc(-c3ccc(-n4ccnc4)cc3O)cc2s1)C1CCNCC1 [Compound 327, 5-(1H-imidazol-1-yl)-2-{6-[methyl(piperidin-4-yl)amino][1,3]thiazolo[4,5-c]pyridazin-3-yl}phenol] | 100 to 500

Second part, the compound after the results:

IC50 [nM] | Structure (SMILES)
≤ 100 | Cc1cn2cc(-c3cc4sc(OC5CC(C)(C)NC(C)(C)C5)nc4cn3)cc(C#N)c2n1 [Compound 309, 2-methyl-6-{2-[(2,2,6,6-tetramethylpiperidin-4-yl)oxy][1,3]thiazolo[4,5-c]pyridin-6-yl}imidazo[1,2-a]pyridine-8-carbonitrile]
≤ 100 | Cc1cn2cc(-c3cc4sc(OC5CC(C)(C)NC(C)(C)C5)nc4cn3)cc(F)c2n1 [Compound 310, 6-(8-fluoro-2-methylimidazo[1,2-a]pyridin-6-yl)-2-[(2,2,6,6-tetramethylpiperidin-4-yl)oxy][1,3]thiazolo[4,5-c]pyridine]
≤ 100 | Cn1cc2cc(-c3cc4sc(OC5CC(C)(C)NC(C)(C)C5)nc4cn3)cc(C#N)c2n1 [Compound 311, 2-methyl-5-{2-[(2,2,6,6-tetramethylpiperidin-4-yl)oxy][1,3]thiazolo[4,5-c]pyridin-6-yl}-2H-indazole-7-carbonitrile]
100 to 500 | Cn1cc2cc(-c3cc4sc(OC5CC(C)(C)NC(C)(C)C5)nc4cn3)cc(F)c2n1 [Compound 312, 6-(7-fluoro-2-methyl-2H-indazol-5-yl)-2-[(2,2,6,6-tetramethylpiperidin-4-yl)oxy][1,3]thiazolo[4,5-c]pyridine]
100 to 500 | Cc1cn2cc(-c3cc4sc(OC5CCNCC5)nc4cn3)cc(C#N)c2n1 [Compound 313, 2-methyl-6-{2-[(piperidin-4-yl)oxy][1,3]thiazolo[4,5-c]pyridin-6-yl}imidazo[1,2-a]pyridine-8-carbonitrile]
100 to 500 | Cc1cn2cc(-c3cc4sc(OC5CCNCC5)nc4cn3)cc(F)c2n1 [Compound 314, 6-(8-fluoro-2-methylimidazo[1,2-a]pyridin-6-yl)-2-[(piperidin-4-yl)oxy][1,3]thiazolo[4,5-c]pyridine]
100 to 500 | Cn1cc2cc(-c3cc4sc(OC5CCNCC5)nc4cn3)cc(C#N)c2n1 [Compound 315, 2-methyl-5-{2-[(piperidin-4-yl)oxy][1,3]thiazolo[4,5-c]pyridin-6-yl}-2H-indazole-7-carbonitrile]
100 to 500 | Cn1cc2cc(-c3cc4sc(OC5CCNCC5)nc4cn3)cc(F)c2n1 [Compound 316, 6-(7-fluoro-2-methyl-2H-indazol-5-yl)-2-[(piperidin-4-yl)oxy][1,3]thiazolo[4,5-c]pyridine]
≤ 100 | Cc1cn2cc(-c3cc(F)c4nc(OC5CCNCC5)sc4c3)cc(C#N)c2n1 [Compound 317, 6-{4-fluoro-2-[(piperidin-4-yl)oxy]-1,3-benzothiazol-6-yl}-2-methylimidazo[1,2-a]pyridine-8-carbonitrile]
≤ 100 | Cn1cc2cc(-c3cc(F)c4nc(OC5CCNCC5)sc4c3)cc(C#N)c2n1 [Compound 318, 5-{4-fluoro-2-[(piperidin-4-yl)oxy]-1,3-benzothiazol-6-yl}-2-methyl-2H-indazole-7-carbonitrile]
≤ 100 | Cc1cn2cc(-c3cc(F)c4nc(OC5CCNCC5)sc4c3)cc(C)c2n1 [Compound 319, 6-(2,8-dimethylimidazo[1,2-a]pyridin-6-yl)-4-fluoro-2-[(piperidin-4-yl)oxy]-1,3-benzothiazole]
≤ 100 | Cc1cn2nc(-c3cc(F)c4nc(OC5CCN(C)CC5)sc4c3)cc(C)c2n1 [Compound 320, 6-{4-fluoro-2-[(1-methylpiperidin-4-yl)oxy]-1,3-benzothiazol-6-yl}-2,8-dimethylimidazo[1,2-b]pyridazine]
≤ 100 | CCN1CCC(Oc2nc3c(F)cc(-c4cc(C)c5nc(C)cn5n4)cc3s2)CC1 [Compound 321, 6-{2-[(1-ethylpiperidin-4-yl)oxy]-4-fluoro-1,3-benzothiazol-6-yl}-2,8-dimethylimidazo[1,2-b]pyridazine]
